Experimental data as given in patent US20230372382A1, “USE OF ADENOSINE DIPHOSPHATE RIBOSE FOR ADJUVANT THERAPY WITH RADIATION AND/OR ANTI-CANCER TREATMENT” (PearlsInMires Co., Ltd., priority 2021, published 2023).

Legend:
[1] = system: Breast cancer (MDA-MB-231) cells; test: Xenograft model, combination with radiation, tumor volume; format: in vivo, BALB/c nude mice; details: MDA-MB-231 xenograft
Method: Brain cancer (U-87MG), pancreatic cancer (AsPC-1), breast cancer (MDA-MB-231), or kidney cancer (Caki-1) cells (1×10^7 cells) were inoculated into 5-week-old BALB/c nude mice on the back flank, respectively. Then, when tumors were grown to a volume of approximately 150 mm^3, the mice were divided into three groups: the control group (Control), 2 Gy dose of radiation alone, and a combination administration of 2 Gy dose of radiation+10 mg/kg of ADP-ribose (subcutaneous administration, 3 times a week). The irradiation was performed with an X-Rad 320 irradiator (Precision X-ray, North Branford, CT, USA), wherein the mice were placed by maintaining an appropriate distance from the radiation source for irradiation with a predetermined radiation dose. A lead shield was used to protect the body parts or organs from exposure to radiation, other than the cancerous part of the mouse. The irradiation was performed with a total of 2 Gy of radiation fractionated into two doses of 1 Gy each (for 2 days) at a dose rate of 300 kVp and 150 cGy/min using an X-ray beam filter composed of 12.5 mA and 2.0 mm Al. The tumor size was measured every 6 days using a digital caliper, and the results of changes in tumor volume were compared by the group.
Breast cancer (MDA-MB-231) cells (1×10^7) were inoculated into 5-week-old BALB/c nude mice on the back flank, and the mice were divided into three groups: the control group (Control), 2 Gy dose of radiation alone, and combination administration of 2 Gy dose radiation+20 mg/kg of ADP-ribose. When the tumors were grown to a volume of approximately 150 mm^3, 2 Gy dose of radiation was irradiated twice at 1 Gy each, and 20 mg/kg of ADP-ribose was injected subcutaneously 3 times a week. The tumor size was measured using a digital caliper, and the results of changes in tumor volume were compared by the group.

HCT116 cells = test: Cell death by combination treatment of ADP-ribose and radiation (MTT); format: cell-based; details: HCT116, 16 μM ADP-ribose in combination with 2 Gy radiation, 24 hours, P<0.001; 2 Gy alone about 90.3%
Method: (§3) 3×10^3 Brain cancer (U-87MG), lung cancer (H1975), pancreatic cancer (Aspc-1), liver cancer (Hep G2), breast cancer (MDA-MB-231), colon cancer (HCT116), and kidney cancer (Caki-1) cells were cultured in a 96-well plate for 24 hours under conditions of 37° C. and 5% CO2, treated with ADP-ribose or 2 or 5 Gy radiation alone or in combination with ADP-ribose and 2 Gy radiation, and cultured for 24 hours under conditions of 37° C. and 5% CO2 again. Then, 10 μl of 3-(4,5-dimethylthiazol-2-yl)-2,5-diphenyltetrazolium bromide reagent was added to each well and reacted for 1 hour. After the reaction was completed, the reagent was removed, 200 μl of dimethyl sulfoxide was added to each well, and the absorbance was measured to compare the degree of cell death.
3×10^3 HCT116 cells were cultured in a 96-well plate for 24 hours under conditions of 37° C. and 5% CO2, treated with 16 μM of ADP-ribose and 2 or 5 Gy dose of radiation individually or in combination, and cultured for 24 hours under conditions of 37° C. and 5% CO2 again. Then, 10 μl of 3-(4,5-dimethylthiazol-2-yl)-2,5-diphenyltetrazolium bromide reagent was added to each well and reacted for 1 hour. After the reaction was completed, the reagent was removed, 200 μl of dimethyl sulfoxide was added to each well, and the absorbance was measured to confirm cell viability.

AsPC-1 cells = test: Transwell metastasis and invasion ability of cancer cells; format: cell-based; details: AsPC-1, 16 μM ADP-ribose
Method: (§1) Metastasis and invasion ability of cancer cells were analyzed by using a transwell having polycarbonate membrane filters with 8.0 μm pore size. The transwell was put into a 24-well plate. In each well, pancreatic cancer (Aspc-1) and breast cancer (MDA-MB-231) cells were seeded on the upper surface of the insert at a density of 3.5×10^5 cells per well, divided into the untreated group and ADP-ribose-treated groups, and cultured under conditions of 37° C. and 5% CO2 for 24 hours. After culturing, the transwell was carefully washed with sterile water and then placed in 100% methanol to fix the attached cells. After fixation, the cells were stained with hematoxylin and an eosin reagent to observe the cells, and the ratio of cells that permeated the upper surface of the insert and metastasized and invaded the lower surface, compared to the untreated group, was obtained.
(§2) Analysis was performed using a transwell having polycarbonate membrane filters with 8.0 μm pore size. […] After culturing, the transwell was carefully washed with sterile water and then placed in 100% methanol to fix the attached cells. After fixation, the cells were stained with hematoxylin and an eosin reagent to observe the cells.

MDA-MB-231 cells [2] = test: as above; format: cell-based; details: MDA-MB-231, 32 μM ADP-ribose
Method: as §1, §2

Caki-1 cells = test: Change over time in intracellular ADP-ribose, radiation versus ADP-ribose treatment (ELISA); format: cell-based; details: Caki-1, 16 μM ADP-ribose, even after 24 hours; after radiation back to untreated level from 8 hours
Method: Brain cancer (U-87MG), kidney cancer (Caki-1), pancreatic cancer (AsPC-1), or breast cancer (MDA-MB-231) cells were cultured in a 6-well plate, respectively, and the cells were divided into the untreated group, the radiation-treated group, and the ADP-ribose-treated group. Irradiation was performed using an X-Rad 320 irradiator (Precision X-ray, North Branford, CT, USA), and cancer cells were treated with a total of 1, 2, and 5 Gy at a dose rate of 300 kVp and 150 cGy/min using an X-ray beam filter composed of 12.5 mA and 2.0 mm Al, respectively. Before treatment and at 4, 8, 16, and 24 hours after treatment, the medium was removed, the cells were washed with phosphate-buffered saline, and then RIPA buffer was added and the products were left on ice for 20 minutes. After scraping the cells, the cells were put in a centrifuge tube and centrifuged for 10 minutes at 10,000 g and 4° C. The supernatant was obtained, and 1% SDS was added, and then the reaction product was boiled at 100° C. for 5 minutes and cooled on ice. The supernatant was centrifuged again at 10,000 g and 4° C. for 10 minutes to obtain the final supernatant, and ADP-ribose was quantitatively analyzed using an ELISA analysis kit (Cell Biolabs, Inc., San Diego, CA, USA). […]

MDA-MB-231 cells [3] = test: Cell death by combination treatment of ADP-ribose and radiation (MTT); format: cell-based; details: MDA-MB-231, 16 μM ADP-ribose in combination with 2 Gy radiation, 24 hours, P<0.001; 2 Gy alone about 90.6%
Method: as §3
3×10^3 MDA-MB-231 cells were cultured in a 96-well plate for 24 hours under conditions of 37° C. and 5% CO2, treated with 16 μM of ADP-ribose and 2 or 5 Gy dose of radiation individually or in combination, and cultured for 24 hours under conditions of 37° C. and 5% CO2 again. Then, 10 μl of 3-(4,5-dimethylthiazol-2-yl)-2,5-diphenyltetrazolium bromide reagent was added to each well and reacted for 1 hour. After the reaction was completed, the reagent was removed, 200 μl of dimethyl sulfoxide was added to each well, and the absorbance was measured to confirm cell viability.

[4] = ADP-ribose 20 mg/kg s.c. + 2 Gy radiation, P<0.001

Compound: Nc1ncnc2c1ncn2[C@@H]1O[C@H](COP(=O)(O)OP(=O)(O)OC[C@H]2O[C@@H](O)C(O)C2O)C(O)C1O (stereo partly shown) [ADP-ribose, adenosine diphosphate ribose]
- reduction of tumor volume compared to the control group [1, 4]: about 72.6%
- reduction of tumor volume compared to the group treated with 2 Gy dose of radiation alone [1, 4]: about 56.1%
- final tumor volume ([1]; ADP-ribose 20 mg/kg subcutaneous 3 times a week + 2 Gy radiation, control about 2336.1, 2 Gy alone about 1459.6): about 640.4 mm^3
- survival rate of cancer cells (HCT116 cells): about 14%
- invasion and metastasis from upper to lower part of the transwell (photomicrograph) (AsPC-1 cells; 24 hours, FIG. 10A): significantly inhibited
- metastasis and invasion ability, quantitatively measured, compared to the control group (AsPC-1 cells; P<0.001, FIG. 10B): significantly reduced
- invasion and metastasis from upper to lower part of the transwell (photomicrograph) (MDA-MB-231 cells [2]; 24 hours, FIG. 11A): significantly inhibited
- metastasis and invasion ability, quantitatively measured, compared to the control group (MDA-MB-231 cells [2]; P<0.001, FIG. 11B): significantly reduced
- amount of ADP-ribose in the cells over time compared to the control group (Caki-1 cells): maintained a significant (P<0.001) increase
- survival rate of cancer cells (MDA-MB-231 cells [3]): about 11.3%
